The nature of series [1]: Tolerability in mice during efficacy studies. The series is classed as in vivo. As to conditions: doses up to 100 mg/kg BID (200 mg/kg/day), highest dose administered.
Series [2] has as its system T. b. gambiense 108R. The series is described as follows: In vitro compound sensitivity assay (resazurin viability). It is filed as cell-based. As to conditions: Trypanosoma brucei, 72 h incubation, n = 1. The source says: (§1) The bloodstream-form T. b. brucei 427 strain was obtained from Dr. K. Stuart (Seattle Biomedical Research Institute, Seattle, WA) and was used for routine assessment of compound sensitivity in vitro. Additional strains used in vitro include T. b. rhodesiense STIB900, isolated in 1992 from a patient in Tanzania, and T. b. gambiense 108R, isolated from a patient in Democratic Republic of Congo in 2005. T. b. brucei EATRO 110 was a generous gift from the late William Trager of the Rockefeller University. T. b. brucei TREU 667 strains were kindly provided by F. W. Jennings at the University of Glasgow. Both T. b. brucei EATRO 110 and TREU 667 were cultured according to previously described conditions and used for in vivo studies.[18], [19]
(§2) T. b. brucei was cultured in complete HMI-9 medium,[20] which contains 10% fetal bovine serum (FBS) (Invitrogen, Carlsbad, CA), 10% Serum Plus medium (SAFC Biosciences, Lenexa, KS), and 100 units/mL penicillin and 0.1 mg/mL streptomycin. The trypanosomes were propagated in T-25 vented cap flasks (Corning Inc., Lowell, MA) at 37°C and 5% CO2 with humidity. To ensure log growth phase, trypanosomes were sub-cultured at appropriate dilutions (typically 1∶100) every 2–3 days in fresh HMI-9 medium. T. b. rhodesiense parasites were grown in MEM medium with Earle's salts supplemented with 15% horse serum. For T. b. gambiense, the MEM medium was supplemented with 5% heat-inactivated fetal calf serum (FCS) and 15% human serum.[21] L929 mouse fibroblast cells (ATCC CCL1, American Type Culture Collection, Rockville, MD) were used to determine parasite versus mammalian cell selectivity. Cells were cultured in Dulbecco's Modified Eagle Medium (DMEM), supplemented with 10% FBS, L-glutamine and 100 units/mL penicillin and 0.1 mg/mL streptomycin. MDCKII-hMDR1 cells were generously provided by P. Borst at the Netherlands Kancer Institute. Cells were cultured in DMEM with Glutamax, 10% (v/v) FBS, and 100 units/mL penicillin and 0.1 mg/mL streptomycin. Cell monolayers were fed with cell culture media 24 h after seeding and used for permeability studies 3 days later.
(§3) Compounds to be tested were serially diluted in DMSO and added to 96-well plates to give final concentrations ranging from 5 to 0.01 µg/mL. T. b. brucei parasites in the log phase of growth were diluted in HMI-9 media and added to each well for a final concentration of 1×10^4 parasites per well. For the sensitivity assays using T. b. rhodesiense and T. b. gambiense, pararasites were cultured in MEM supplemented with Baltz components (8), diluted in the aforementioned culture media, and added to each well at a density of 1×10^3 cells/well. The final concentration of DMSO was 0.5% and the total volume was 100 µL/well. After a 72 h incubation, resazurin (Sigma-Aldrich, St. Louis, MO) was added to each well [20 µL of 25 mg/100 mL stock in phosphate buffered saline (PBS)] and incubated for an additional 4–6 h.[22] To assess cell viability, fluorescence was quantified using an EnVision Multilabel Plate Reader (Perkin Elmer, Waltham, MA) at an excitation wavelength of 530 nm and emission of 590 nm. Triplicate data points were averaged to generate sigmoidal dose-response curves and determine IC50 values using XLfit curve fitting software from IDBS (Guilford, UK). The IC50 is defined as the amount of compound required to decrease parasite or cell viability by 50% compared to those grown in the absence of the test compound. […]

Series [3] deals with T. b. rhodesiense STIB 900. The series is described as above. The series is classed as cell-based. As to conditions: Trypanosoma brucei; 72 h incubation; n = 1.
Description: as §1, §2, §3

Series [4] concerns T. b. brucei 427. The description is as above. The series is classed as cell-based. The following applies: Trypanosoma brucei.
Description: as §1, §2, §3

In series [5] the target is T1, CYP2C9 (Homo sapiens, UniProt P11712).
T1 construct: purchased Promega Inc., Madison, WI
Briefly: P450-Glo cytochrome P450 inhibition. It is filed as biochemical. As to conditions: human recombinant CYP2C9. On the procedure:
(§4) The potential for compound to exert drug-drug interactions that are mediated through inhibition of cytochrome P450 activities was assessed using P450-Glo assay kits (Promega Inc., Madison, WI). Assays for human cytochrome P450 isoforms 3A4, 1A2, 2C9, 2C19, and 2D6 were performed in triplicate according to the manufacturer's instructions over the concentration range 1–100 µM (n = 6 levels). Briefly, SCYX-7158 was added to membrane preparations containing human recombinant CYP450 enzymes together with luminogenic substrates specific to each isoform. Specific CYP450 inhibitors were included as positive controls (ketoconazole, CYP3A4; alpha-napthoflavone, 1A2; sulfaphenazole, CYP2C9; troglitazone, 2C19, and quinidine, CYP2D6). Reactions were initiated by addition of NADPH-regenerating solution and were allowed to incubate for an additional 15–30 min (isoform dependent). Luciferin detection reagent, containing the luciferin-labeled probe substrate, was then added. Luminescence was recorded on an EnVision Multilabel Plate Reader. Calculation of IC50 concentrations for each enzyme was determined using GraphPad Prism (V5.01).

Series [6] addresses T2, CYP2D6 (Homo sapiens, UniProt P10635).
T2 construct: purchased Promega Inc., Madison, WI
The series is described as follows: P450-Glo cytochrome P450 inhibition. The following applies: human recombinant CYP2D6. The series is classed as biochemical. On the procedure:
as §4

The target of series [7] is T3, CYP2C19 (Homo sapiens, UniProt P33261).
T3 construct: purchased Promega Inc., Madison, WI
Briefly: P450-Glo cytochrome P450 inhibition. The series is classed as biochemical. The following applies: human recombinant CYP2C19. Here is the method: as §4

For series [8], the target named is T4, CYP3A4 (Homo sapiens, UniProt P08684).
T4 construct: purchased Promega Inc., Madison, WI
The series is described as follows: P450-Glo cytochrome P450 inhibition. It is filed as biochemical. The following applies: human recombinant CYP3A4. On the procedure: as §4

Series [9] has as its target T5, CYP1A2 (Homo sapiens, UniProt P05177).
T5 construct: purchased Promega Inc., Madison, WI
The series is described as follows: P450-Glo cytochrome P450 inhibition. The series is classed as biochemical. As to conditions: human recombinant CYP1A2. On the procedure:
as §4

1 molecule from article PMC3125149, “SCYX-7158, an Orally-Active Benzoxaborole for the Treatment of Stage 2 Human African Trypanosomiasis” (PLoS Neglected Tropical Diseases, 2011) can be followed below.

≈ marks a conversion by molar mass, not a printed value.

T5 sequence (P05177 whole entry): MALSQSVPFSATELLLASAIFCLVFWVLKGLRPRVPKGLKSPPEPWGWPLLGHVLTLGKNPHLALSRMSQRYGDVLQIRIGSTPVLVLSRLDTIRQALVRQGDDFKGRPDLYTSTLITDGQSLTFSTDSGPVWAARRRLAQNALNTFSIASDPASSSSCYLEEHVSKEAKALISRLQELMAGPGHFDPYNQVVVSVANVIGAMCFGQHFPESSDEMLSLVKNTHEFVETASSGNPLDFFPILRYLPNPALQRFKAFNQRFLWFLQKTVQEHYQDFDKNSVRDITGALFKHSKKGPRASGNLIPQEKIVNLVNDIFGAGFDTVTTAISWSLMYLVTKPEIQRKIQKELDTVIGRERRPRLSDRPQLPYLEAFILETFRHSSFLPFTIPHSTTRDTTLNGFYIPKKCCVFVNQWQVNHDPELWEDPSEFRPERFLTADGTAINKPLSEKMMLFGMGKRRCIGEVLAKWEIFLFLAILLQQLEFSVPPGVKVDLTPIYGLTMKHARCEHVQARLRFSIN
T1 sequence (P11712 whole entry): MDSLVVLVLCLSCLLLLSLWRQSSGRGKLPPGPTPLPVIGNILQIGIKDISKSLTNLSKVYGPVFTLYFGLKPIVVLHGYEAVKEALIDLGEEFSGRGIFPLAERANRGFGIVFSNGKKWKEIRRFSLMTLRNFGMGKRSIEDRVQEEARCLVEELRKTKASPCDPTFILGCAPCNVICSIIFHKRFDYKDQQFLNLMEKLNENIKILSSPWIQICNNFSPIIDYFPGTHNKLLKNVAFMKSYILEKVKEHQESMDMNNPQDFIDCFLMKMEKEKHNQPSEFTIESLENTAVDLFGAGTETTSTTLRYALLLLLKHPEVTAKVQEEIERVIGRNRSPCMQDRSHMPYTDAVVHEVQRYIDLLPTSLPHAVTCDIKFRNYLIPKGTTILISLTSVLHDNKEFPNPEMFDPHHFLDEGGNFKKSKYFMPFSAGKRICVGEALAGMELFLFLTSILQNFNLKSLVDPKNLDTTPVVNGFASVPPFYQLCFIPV
T4 sequence (P08684 whole entry): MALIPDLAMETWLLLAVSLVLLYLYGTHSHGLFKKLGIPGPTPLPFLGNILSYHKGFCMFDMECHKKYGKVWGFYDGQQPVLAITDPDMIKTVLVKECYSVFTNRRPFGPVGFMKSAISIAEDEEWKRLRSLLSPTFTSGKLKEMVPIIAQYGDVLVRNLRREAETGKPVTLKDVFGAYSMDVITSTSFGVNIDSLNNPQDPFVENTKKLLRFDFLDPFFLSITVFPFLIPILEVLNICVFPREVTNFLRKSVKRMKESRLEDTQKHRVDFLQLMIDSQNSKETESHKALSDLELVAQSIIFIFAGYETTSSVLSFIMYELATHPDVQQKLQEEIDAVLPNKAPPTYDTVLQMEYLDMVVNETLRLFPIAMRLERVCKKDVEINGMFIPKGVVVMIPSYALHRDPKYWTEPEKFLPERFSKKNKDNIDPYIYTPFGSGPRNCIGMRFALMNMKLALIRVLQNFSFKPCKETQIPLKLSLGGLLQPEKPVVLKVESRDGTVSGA
T3 sequence (P33261 whole entry): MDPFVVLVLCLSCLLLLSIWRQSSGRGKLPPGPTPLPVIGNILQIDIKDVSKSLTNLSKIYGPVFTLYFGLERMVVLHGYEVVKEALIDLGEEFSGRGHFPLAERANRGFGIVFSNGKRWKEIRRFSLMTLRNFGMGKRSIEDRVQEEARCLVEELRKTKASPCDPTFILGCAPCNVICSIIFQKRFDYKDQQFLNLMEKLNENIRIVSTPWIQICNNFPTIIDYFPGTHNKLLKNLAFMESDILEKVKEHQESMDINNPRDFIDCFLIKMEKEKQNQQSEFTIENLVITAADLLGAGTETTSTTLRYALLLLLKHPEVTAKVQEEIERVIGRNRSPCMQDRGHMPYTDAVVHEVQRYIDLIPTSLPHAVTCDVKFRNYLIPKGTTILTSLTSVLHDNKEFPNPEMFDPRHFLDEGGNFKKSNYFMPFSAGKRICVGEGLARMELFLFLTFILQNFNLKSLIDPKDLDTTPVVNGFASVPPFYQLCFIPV
T2 sequence (P10635 whole entry): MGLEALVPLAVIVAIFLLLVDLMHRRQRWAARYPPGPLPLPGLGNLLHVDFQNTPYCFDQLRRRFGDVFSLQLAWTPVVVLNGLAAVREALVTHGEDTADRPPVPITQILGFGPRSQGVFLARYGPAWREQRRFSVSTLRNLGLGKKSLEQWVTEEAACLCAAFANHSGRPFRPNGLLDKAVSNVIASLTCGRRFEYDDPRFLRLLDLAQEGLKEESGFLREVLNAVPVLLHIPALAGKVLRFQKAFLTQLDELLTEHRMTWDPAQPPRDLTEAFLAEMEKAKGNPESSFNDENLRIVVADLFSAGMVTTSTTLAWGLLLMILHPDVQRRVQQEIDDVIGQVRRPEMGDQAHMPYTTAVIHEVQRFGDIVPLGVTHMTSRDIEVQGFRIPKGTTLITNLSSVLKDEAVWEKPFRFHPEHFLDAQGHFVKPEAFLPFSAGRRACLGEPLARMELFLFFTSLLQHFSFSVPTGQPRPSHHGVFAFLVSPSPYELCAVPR

In the case of `CC1(C)OB(O)c2cc(NC(=O)c3ccc(F)cc3C(F)(F)F)ccc21` [SCYX-7158], the tolerability result in series [1] is recorded as “well tolerated”. The IC50 in series [2] came out at 0.165 µg/mL (≈ 0.449 µM); in series [3], 0.294 µg/mL (≈ 0.801 µM); in series [4] (72 h incubation, n = 9), 0.292 ± 0.019 µg/mL (≈ 0.795 µM); in series [5], 23.5 µM; in series [6], 21.1 µM; in series [7], 23.1 µM. Besides, the IC50 was 47.4 µM in [8] and above 100 µM in series [9]. In addition, the MIC in series [4] (T. b. brucei S427, visual inspection) was 0.6 µg/mL (≈ 1.63 µM).
